Data reported in ChEMBL document CHEMBL3352694, “Structure-activity relationships (SAR) and structure-kinetic relationships (SKR) of bicyclic heteroaromatic acetic acids as potent CRTh2 antagonists I” (Bioorg Med Chem Lett, 2014).
Each block holds one compound with its values, some of them ahead of it.

Columns and labels:
[1] = biological target: T1, Prostaglandin D2 receptor 2 (Homo sapiens) (UniProt Q9Y5Y4); conditions: CHO-K1
T1 sequence (whole entry): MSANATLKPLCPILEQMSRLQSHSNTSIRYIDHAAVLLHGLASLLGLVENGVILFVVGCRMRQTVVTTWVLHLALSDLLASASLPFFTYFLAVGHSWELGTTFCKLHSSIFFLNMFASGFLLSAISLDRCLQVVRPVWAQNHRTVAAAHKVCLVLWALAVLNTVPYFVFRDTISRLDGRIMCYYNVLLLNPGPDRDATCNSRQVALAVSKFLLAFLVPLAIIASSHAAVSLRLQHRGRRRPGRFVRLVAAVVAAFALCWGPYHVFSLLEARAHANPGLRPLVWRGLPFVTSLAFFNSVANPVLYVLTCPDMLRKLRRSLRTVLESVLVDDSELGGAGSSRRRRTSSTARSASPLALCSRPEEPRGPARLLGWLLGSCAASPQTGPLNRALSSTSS
Description: Binding affinity to CRTh2 receptor (unknown origin) overexpressed in CHOK1 cell membranes assessed as dissociation half life at 10 X IC50 preincubated for 1 hr followed [35S]-GTPgammaS addition measured after 2 hrs by liquid scintillation counting analysis

[2] = biological target: T2, Prostaglandin D2 receptor 2 (Homo sapiens, UniProt Q9Y5Y4); assay: Antagonist activity at CRTh2 receptor (unknown origin) overexpressed in CHOK1 cell membranes assessed as inhibition of [35S]-GTPgammaS binding at 1 to 5 uM preincubated for 1 hr followed by 50 nM PGD2 and 0.1 nM [35S]-GTPgammaS addition measured after 2 hrs by liquid scintillation counting analysis relative to control; format: functional, CHO-K1
T2 sequence (Q9Y5Y4 whole entry): T1 sequence (whole entry)

[3] = Dissociation constant, basic pKa of the compound by potentiometric assay; format: physicochemical
[4] = Dissociation constant, acidic pKa of the compound by potentiometric assay; format: physicochemical
[5] = Thermodynamic solubility in pH 1.0 buffer after 24 hrs at 37 degC; format: physicochemical; conditions: read-out: Therm_solubility
[6] = Thermodynamic solubility in pH 7.4 buffer after 24 hrs at 37 degC; format: physicochemical; conditions: read-out: Therm_solubility
[7] = Lipophilicity, log D of the compound at pH 7.4 by shake flask method; format: physicochemical; conditions: buffer
[8] = Mean residence time in rat at 1 mg/kg; format: ADME, organism-based; design: dose 1 mg/kg; conditions: in vivo
[9] = Drug metabolism in rat liver microsomes assessed as phase-2 metabolism measured by glucuronidation level at 5 uM in presence of UDPGA after 2 hrs at 37 degC; format: ADME; conditions: read-out: Drug metabolism
[10] = Drug metabolism in rat liver microsomes at 5 uM in presence of NADPH after 30 mins at 37 degC; format: ADME; conditions: read-out: Drug metabolism
[11] = AUC (0 to infinity) in rat at 1 mg/kg; format: ADME, organism-based; design: time infinity, dose 1 mg/kg; conditions: plasma
[12] = Volume of distribution at steady state in rat at 1 mg/kg; format: ADME, organism-based; design: dose 1 mg/kg; conditions: in vivo, read-out: Vdss
[13] = Clearance in rat at 1 mg/kg; format: ADME, organism-based; design: dose 1 mg/kg; conditions: in vivo
[14] = Apparent permeability of the compound at 20 uM incubated at 20 degC for 5 hrs in 2% DMSO containing PBS buffer solution by PAMPA assay; format: physicochemical
[15] = Oral bioavailability in rat at 10 mg/kg; format: ADME, organism-based; conditions: in vivo
[16] = Cmax in rat at 1 mg/kg; format: ADME, organism-based; design: dose 1 mg/kg; conditions: in vivo
[17] = Permeability of the compound assessed as mass balance at 20 uM incubated at 20 degC for 5 hrs in 2% DMSO containing PBS buffer solution by PAMPA assay; format: ADME; conditions: read-out: Activity
[18] = Terminal half life in rat at 1 mg/kg; format: ADME, organism-based; design: dose 1 mg/kg; conditions: in vivo, read-out: beta t1/2 (converted)
[19] = Drug metabolism in human liver microsomes assessed as phase-2 metabolism measured by glucuronidation level at 5 uM in presence of UDPGA after 2 hrs at 37 degC; format: ADME; conditions: read-out: Drug metabolism
[20] = Drug metabolism in human liver microsomes at 5 uM in presence of NADPH after 30 mins at 37 degC; format: ADME; conditions: read-out: Drug metabolism
[21] = Antagonist activity at CRTh2 receptor in human eosinophil assessed as inhibition of PGD2-induced cell shape change

Compound: CCN(Cc1cc(C(F)(F)F)ccc1-c1cn(CC(=O)O)c2ccncc12)C(=O)C1CC1
T1/2 [1]: 1.1 h | IC50 [2]: 43 nM | pKa [3]: 7.8 | pKa [4]: 2.4

Compound: CCN(Cc1cc(C(F)(F)F)ccc1-c1cc(CC(=O)O)c2ccnn2c1)C(=O)C1CC1
T1/2 [1]: 0.2 h | IC50 [2]: 123 nM

Compound: CCN(Cc1cc(C(F)(F)F)ccc1-c1cc(CC(=O)O)cn2nccc12)C(=O)C1CC1
IC50 [2]: 247 nM

Compound: CCN(Cc1cc(C(F)(F)F)ccc1-c1cc(CC(=O)O)ccc1OC)C(=O)C1CC1
logD [7]: 0.6 | IC50 [2]: 16 nM | MRT [8]: 4.7 h | metabolised at 2 h, 5 µM [19]: 28% | metabolised at 2 h, 5 µM [9]: 21% | AUC(0-inf) [11]: 2420 ng·h/mL | Vd [12]: 2 L/kg | metabolised at 0.5 h, 5 µM [20]: < 5% | clearance [13]: 6.9 mL/min/kg | Papp at 5 h, 20 µM [14]: 1.5 ×10⁻⁶ cm/s | Cmax [16]: 1530 ng/mL | recovery at 5 h, 20 µM [17]: 91% | half-life [18]: 5.9 h

Compound: CCN(Cc1cc(C(F)(F)F)ccc1-n1cc(CC(=O)O)c2cccnc21)C(=O)C1CC1
logD [7]: 0.5 | MRT [8]: 3.4 h | metabolised at 2 h, 5 µM [9]: 6% | AUC(0-inf) [11]: 885 ng·h/mL | Vd [12]: 3.9 L/kg | clearance [13]: 19 mL/min/kg | Papp at 5 h, 20 µM [14]: 1.1 ×10⁻⁶ cm/s | solubility thermodynamic at 24 h [5]: > 1000 µg/mL | Cmax [16]: 926 ng/mL | pKa [3]: 4.2 | pKa [4]: 2.4 | recovery at 5 h, 20 µM [17]: 80% | half-life [18]: 5.3 h | solubility thermodynamic at 24 h [6]: > 1000 µg/mL

Compound: CCN(Cc1cc(C(F)(F)F)ccc1-c1cc(CC(=O)O)n2cccnc12)C(=O)C1CC1
solubility thermodynamic at 24 h [5]: > 1000 µg/mL | pKa [3]: 1.7 | pKa [4]: 3.7 | IC50 [21]: 1.4 nM | solubility thermodynamic at 24 h [6]: > 1000 µg/mL

Compound: CCN(Cc1cc(C(F)(F)F)ccc1-c1nc(CC(=O)O)c2ccccn12)C(=O)C1CC1
T1/2 [1]: 0.7 h | IC50 [2]: 82 nM | solubility thermodynamic at 24 h [5]: > 1000 µg/mL | pKa [3]: 4.8 | pKa [4]: 3

Compound: CCN(Cc1cc(C(F)(F)F)ccc1-c1cc(CC(=O)O)c2cccn2c1)C(=O)C1CC1
IC50 [2]: 262 nM

The next lines start with the values.

solubility thermodynamic at 24 h [5]: > 1000 µg/mL | pKa [3]: 5.6 | pKa [4]: 2.5 | solubility thermodynamic at 24 h [6]: > 1000 µg/mL
Compound: CCN(Cc1cc(C(F)(F)F)ccc1-c1cn(CC(=O)O)c2cccnc12)C(=O)C1CC1

logD [7]: 1.4 | T1/2 [1]: 4 h | MRT [8]: 1.6 h | metabolised at 2 h, 5 µM [9]: 32% | metabolised at 0.5 h, 5 µM [10]: < 5% | AUC(0-inf) [11]: 559 ng·h/mL | Vd [12]: 2.9 L/kg | clearance [13]: 30 mL/min/kg | Papp at 5 h, 20 µM [14]: 0.6 ×10⁻⁶ cm/s | solubility thermodynamic at 24 h [5]: < 1 µg/mL | bioavailability [15]: 46% | Cmax [16]: 571 ng/mL | recovery at 5 h, 20 µM [17]: 71% | half-life [18]: 1.5 h | solubility thermodynamic at 24 h [6]: > 1000 µg/mL
Compound: CCN(Cc1cc(C(F)(F)F)ccc1-c1cn(CC(=O)O)c2ccccc12)C(=O)C1CC1

logD [7]: 0.8 | T1/2 [1]: 1.6 h | MRT [8]: 2.4 h | metabolised at 2 h, 5 µM [19]: 35% | metabolised at 2 h, 5 µM [9]: 12% | metabolised at 0.5 h, 5 µM [10]: < 5% | AUC(0-inf) [11]: 440 ng·h/mL | Vd [12]: 5.4 L/kg | metabolised at 0.5 h, 5 µM [20]: < 5% | clearance [13]: 38 mL/min/kg | Papp at 5 h, 20 µM [14]: 0.18 ×10⁻⁶ cm/s | solubility thermodynamic at 24 h [5]: < 1 µg/mL | Cmax [16]: 550 ng/mL | pKa [4]: 2.8 | IC50 [21]: 47 nM | recovery at 5 h, 20 µM [17]: 81% | half-life [18]: 2.4 h | solubility thermodynamic at 24 h [6]: > 1000 µg/mL
Compound: CCN(Cc1cc(C(F)(F)F)ccc1-c1nn(CC(=O)O)c2ccccc12)C(=O)C1CC1

IC50 [21]: 84 nM
Compound: CCN(Cc1cc(C(F)(F)F)ccc1-n1cc(CC(=O)O)c2ccccc21)C(=O)C1CC1

T1/2 [1]: 1.5 h
Compound: CCN(Cc1cc(C(F)(F)F)ccc1-c1cc(CC(=O)O)c2ccncn12)C(=O)C1CC1

IC50 [2]: 398 nM
Compound: CCN(Cc1cc(C(F)(F)F)ccc1-c1cc(CC(=O)O)cn2cnnc12)C(=O)C1CC1

T1/2 [1]: 1.2 h | IC50 [2]: 48 nM
Compound: CCN(Cc1cc(C(F)(F)F)ccc1-c1cc(CC(=O)O)cc2cn(C)nc12)C(=O)C1CC1

T1/2 [1]: 0.7 h | IC50 [2]: 159 nM
Compound: CCN(Cc1cc(C(F)(F)F)ccc1-c1cc(CC(=O)O)cn2ccnc12)C(=O)C1CC1

T1/2 [1]: 1.4 h | IC50 [2]: 48 nM
Compound: CCN(Cc1cc(C(F)(F)F)ccc1-c1cc(CC(=O)O)cc2cnn(C)c12)C(=O)C1CC1
